# According to PMC6993238, “Development of a new class of PSMA radioligands comprising ibuprofen as an albumin-binding entity” (Theranostics, 2020):
# Tests used:
# human plasma proteins = assay: Ultrafiltration assay, binding to human plasma proteins; type: in vitro ADME; settings: 37 °C, 30 min
# Protocol: (§1) In short, the PSMA ligands were labeled with ^177Lu at a molar activity of 50 MBq/nmol, diluted in PBS (pH 7.4) to an activity concentration of 10 MBq/500 μL and incubated in mouse or human plasma at 37 °C for 30 min. After incubation, each sample was loaded on a centifree ultrafiltration device (4104 centrifugal filter units; Millipore, 30000 Da nominal molecular weight limit, methylcellulose micropartition membranes) and centrifuged at 2000 rpm for 40 min at 20 °C to allow the separation of the unbound and plasma-bound radioligand fractions. Samples from the loading solution and samples from the filtrate were taken and counted for radioactivity in a γ-counter. The amount of plasma-bound radioligand was calculated as the fraction of radioactivity measured […] relative to the corresponding loading solution (set to 100%). Control experiments were performed with each radioligand by incubation in PBS (pH 7.4) prior to filtration in order to determine the unspecific binding of the radioligands to the filter membrane. The experiments were performed at least three times for each radioligand. A one-way ANOVA with a Tukeys's multiple comparison post-test was used for statistical analysis in GraphPad Prism software (version 7). A p-value of <0.05 was considered statistically significant.
# [1] = n-octanol/PBS; cited from earlier work
# mouse plasma proteins = assay: Ultrafiltration assay, binding to mouse plasma proteins; type: in vitro ADME; settings: 37 °C, 30 min
# Protocol: as §1
# [2] = test system: non-tumor-bearing athymic BALB/c nude mice; assay: In vivo excretion, whole-body activity measurement; set-up: species or system mouse; settings: 4 h p.i.; activity right after injection = 100%
# Protocol: 14. Determination of the in vivo excretion of the radioligands
# Methods: In order to determine the retention and excretion of each radioligand, non-tumor-bearing athymic BALB/c nude mice were injected with each radioligand (n = 2−3; per radioligand). The mice were measured for radioactivity immediately after injection and at several time points after injection up to 56 h p.i. (Figure S8). The PSMA ligands were, therefore, labeled at a molar activity of 25 MBq/nmol and diluted in saline containing 0.05% bovine serum albumin (BSA). Mice were intravenously injected with the respective radioligand (25 MBq, 1 nmol, 100 µL) and – after e mptying the urinary bladder – measured in a dose calibrator immediately (t = 0) and at various time points after injection up to 56 h p.i..
# The activity measured right after injection was set as 100%. The data points present the average of three mice per radioligand ± standard deviation (SD). […]
# to the albumin-binding properties of the incorporated ibuprofen. The ibuprofen-bearing radioligands […]
# p-tolyl moiety as stronger albumin binder. […]
# excretion patterns for the single radioligands, which was manifested most prominently between 1 h and 4 h p.i. At all measured time points, retention was highest for the radioligand without additional linker entity, 177Lu-Ibu-PSMA. […]
# Figure S8. […] The activity measured right after injection was set as 100%. […]
# [3] = test system: PC-3 PIP/flu tumor-bearing mice; set-up: method as in Benešová et al. 2018 [1]; AUC value PC-3 PIP tumor / AUC value Blood / AUC value Kidneys / AUC value Liver / AUC value Salivary glands: concentration or dose not given beside the values; settings: previously published, ref Benešová et al. 2018 [1], cited from earlier work
# PSMA = target: T1, PSMA (Homo sapiens, UniProt Q04609); assay: Determination of KD values (saturation binding on PC-3 PIP tumor cells); settings: 30 min at 4 °C, 2-PMPA block for non-specific binding
# T1 construct: expressed in transfected cells; host or cells: PC-3 PIP (PSMA-transfected subline of human PC-3 prostate cancer cells), provided by Prof; Martin Pomper
# T1 sequence (Q04609 whole entry): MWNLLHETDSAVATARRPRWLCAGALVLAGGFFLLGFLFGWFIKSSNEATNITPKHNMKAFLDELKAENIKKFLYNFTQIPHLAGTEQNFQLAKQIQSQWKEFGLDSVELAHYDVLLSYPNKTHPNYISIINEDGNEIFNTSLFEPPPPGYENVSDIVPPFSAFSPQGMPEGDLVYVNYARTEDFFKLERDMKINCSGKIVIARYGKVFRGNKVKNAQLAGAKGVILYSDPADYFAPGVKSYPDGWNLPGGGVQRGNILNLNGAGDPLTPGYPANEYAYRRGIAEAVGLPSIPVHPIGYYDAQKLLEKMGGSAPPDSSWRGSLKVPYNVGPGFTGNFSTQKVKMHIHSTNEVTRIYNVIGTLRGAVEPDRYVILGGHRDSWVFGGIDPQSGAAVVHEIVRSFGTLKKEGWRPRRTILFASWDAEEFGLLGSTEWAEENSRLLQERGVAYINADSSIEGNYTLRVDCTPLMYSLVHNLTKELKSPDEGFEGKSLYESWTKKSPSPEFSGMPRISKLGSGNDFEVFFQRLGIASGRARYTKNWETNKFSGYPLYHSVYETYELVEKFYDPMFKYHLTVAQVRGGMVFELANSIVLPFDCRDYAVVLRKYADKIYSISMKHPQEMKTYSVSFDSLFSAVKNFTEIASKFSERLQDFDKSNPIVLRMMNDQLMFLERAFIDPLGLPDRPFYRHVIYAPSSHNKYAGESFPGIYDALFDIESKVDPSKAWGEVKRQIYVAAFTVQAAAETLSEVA
# Protocol: The KD values, indicating the PSMA-binding affinity of the radioligands, were determined using PC-3 PIP tumor cells. The cells were seeded in 48-well-plates (8 x 10^4 cells in 500 µL RPMI medium/well) allowing adhesion and growth overnight. During the experiment, well plates were kept on ice. After removal of the supernatant, the cells were washed once with ice-cold PBS (pH 7.4) before addition of different concentrations (1‒2000 nM) of the radiolabeled PSMA ligands (5 MBq/nmol) in ice-cold RPMI medium without supplements. Some of the PC-3 PIP tumor cell samples were co-incubated with 2-phosphonomethyl pentanedioic acid (2-PMPA, 200 μM) to block PSMA enabling the determination of non-specific binding. After incubation of the well-plates for 30 min at 4 °C, the supernatants were removed and the cells washed twice with ice-cold PBS. The cells were lysed (NaOH, 1 M, 600 µL) and transferred to 4 mL tubes for counting the activity in a γ-counter (Wallac Wizard 1480, Perkin Elmer). The KD values were determined by plotting specific binding (total binding minus unspecific binding determined with blocking agent) against the molar concentration of the added radioligands. […] Statistical significance was assessed using a one-way ANOVA with a Tukeys's multiple comparison post-test in GraphPad Prism software (version 7). […]
# [4] = Radiolytic stability at high activity concentration (HPLC); type: physicochemical; settings: 24 h, saline with L-ascorbic acid (3 mg), 250 MBq/500 μL, room temperature
# Protocol: The radiolytic stability of the PSMA radioligands (50 MBq/nmol) was determined at a high activity concentration (250 MBq/500 μL saline) over a period of 24 h in the absence or presence of L-ascorbic acid (3 mg). The samples were kept at room temperature and aliquots were taken 1 h, 4 h and 24 h after labeling in order to determine the amount of intact radioligand using HPLC as previously reported (Supplementary Material), [29].
# Methods: Radioly tic stability of each PSMA radioligand was assessed over a period of 24 h. For this purpose, Ibu-PSMA, Ibu-Dα-PSMA, Ibu-N-PSMA and Ibu-DAB-PSMA were labeled with 177Lu in a volume of 120 µL at a molar activity of 50 MBq/nmol. After quality control using HPLC (t = 0, radiochemical purity ≥ 96%), the labeling solutions were diluted with saline to 250 MBq/500 µL and radioligand integrity was determined for each radioligand with and without addition of L-ascorbic acid (3 mg). The radioligand dilutions were incubated at room temperature and radioligand degradation was determined by HPLC after 1 h, 4 h and 24 h incubation time as previously reported. The HPLC chromatograms were analyzed by integration of the peaks representing the radiolabeled product, the released 177Lu as well as degradation products of unknown structure (Figure S3). […]
smiles,measurement,setting,value
O=C([O-])CN1CCN(CC(=O)[O-])CCN(CC(=O)NCC2CCC(C(=O)N[C@@H](Cc3ccc4ccccc4c3)C(=O)NCCCC[C@H](NC(=O)N[C@@H](CCC(=O)O)C(=O)O)C(=O)O)CC2)CCN(CC(=O)[O-])CC1.[177Lu+3] (stereo partly drawn) [^177Lu-PSMA-617],binding to human plasma proteins (bound fraction),human plasma proteins,59 ± 1%
same,logD value,[1],-4.4 ± 0.2
same,binding to mouse plasma proteins (bound fraction),mouse plasma proteins,6.0 ± 2%
same,body retention of activity,[2],3.2%
same,AUC value Blood,[3]; non-decay-corrected data,52 ± 2 % IA/g*h
same,AUC value Kidneys,[3]; non-decay-corrected data,99 ± 11 % IA/g*h
same,AUC value Liver,[3]; non-decay-corrected data,6.2 ± 1.6 % IA/g*h
same,AUC value PC-3 PIP tumor,[3]; non-decay-corrected data,3691 ± 156 % IA/g*h
same,AUC value Salivary glands,[3]; non-decay-corrected data,0.5 ± 0.2 % IA/g*h
same,Ratio of AUC values AUCTu-to-AUCBl,[3]; tumor-to-blood,71 ± 6
same,Ratio of AUC values AUCTu-to-AUCKi,[3]; tumor-to-kidney,37 ± 6
same,Ratio of AUC values AUCTu-to-AUCLi,[3]; tumor-to-liver,592 ± 179
same,Ratio of AUC values AUCTu-to-AUCSG,[3]; tumor-to-salivary gland,7382 ± 3265
same,Kd,PSMA,13 ± 1 nM
same,intact radioligand,[4],over 91%
